From US9681664B2, “Macrocyclic picolinamides as fungicides” (Dow Agrosciences LLC, priority 2012, dated 2017)

Key:
Assay type in all cases: in vivo
[1] = test system: Alternaria solani; test: Tomato early blight (ALTESO) disease control; conditions: 24 h, 1 Day Protectant, high volume, read-out: Disease Control ALTESO 1 DP
Description: Technical grades of materials were dissolved in acetone, which were then mixed with nine volumes of water containing 110 ppm Triton X-100. The fungicide solutions were applied onto wheat seedlings using an automated booth sprayer to run-off. All sprayed plants were allowed to air dry prior to further handling. All fungicides were evaluated using the aforementioned method for their activity vs. all target diseases. Wheat leaf blotch and brown rust activity were also evaluated using track spray applications, in which case the fungicides were formulated as EC formulations, containing 0.1% Trycol 5941 in the spray solutions. Tomato plants (variety Outdoor girl) were propagated in soil-less Metro mix, with each pot having one plant, and used when 12 to 14 days old. Test plants were inoculated with an aqueous spore suspension of Alternaria solani 24 hr after fungicide treatments. After inoculation the plants were kept in 100% relative humidity (one day in a dark dew chamber followed by two to three days in a lighted dew chamber at 20° C.) to permit spores to germinate and infect the leaf. The plants were then transferred to a growth room at 22° C. for disease to develop. Fungicide formulation, application and disease assessment on the sprayed leaves followed the procedures as described in the Example A.

[2] = test system: Venturia inaequalis; test: Apple scab (VENTIN) disease control; conditions: 24 h, High volume application, 1 Day Protectant, read-out: VENTIN 1 DP disease control
Description: Technical grades of materials were dissolved in acetone, which were then mixed with nine volumes of water containing 110 ppm Triton X-100. The fungicide solutions were applied onto wheat seedlings using an automated booth sprayer to run-off. All sprayed plants were allowed to air dry prior to further handling. All fungicides were evaluated using the aforementioned method for their activity vs. all target diseases. Wheat leaf blotch and brown rust activity were also evaluated using track spray applications, in which case the fungicides were formulated as EC formulations, containing 0.1% Trycol 5941 in the spray solutions. Apple seedlings (variety McIntosh) were grown in soil-less Metro mix, with one plant per pot. Seedlings with two expanding young leaves at the top (older leaves at bottom of the plants were trimmed) were used in the test. Plants were inoculated with a spore suspension of Venturia inaequalis 24 hr after fungicide treatment and kept in a 22° C. dew chamber with 100% RH for 48 hr, and then moved to a greenhouse set at 20° C. for disease to develop. Fungicide formulation, application and disease assessment on the sprayed leaves followed the procedures as described in the Example A.

[3] = test system: Erysiphe cichoracearum; test: Powdery mildew of cucumber (ERYSCI) disease control; conditions: Golovinomyces cichoracearum, 24 h, 1 Day Protectant, high volume, read-out: Disease Control ERYSCI 1 DP
Description: Technical grades of materials were dissolved in acetone, which were then mixed with nine volumes of water containing 110 ppm Triton X-100. The fungicide solutions were applied onto wheat seedlings using an automated booth sprayer to run-off. All sprayed plants were allowed to air dry prior to further handling. All fungicides were evaluated using the aforementioned method for their activity vs. all target diseases. Wheat leaf blotch and brown rust activity were also evaluated using track spray applications, in which case the fungicides were formulated as EC formulations, containing 0.1% Trycol 5941 in the spray solutions. Cucumber seedlings (variety Bush Pickle) were grown in soil-less Metro mix, with one plant per pot, and used in the test when 12 to 14 days old. Plants were inoculated with a spore suspension 24 hr following fungicide treatments. After inoculation the plants remained in the greenhouse set at 20° C. until disease was fully expressed. Fungicide formulation, application and disease assessment on the sprayed leaves followed the procedures as described in the Example A.

[4] = test system: Glomerella lagenarium; Anamorph: Colletotrichum lagenarium; test: Cucumber anthracnose (COLLLA) disease control; conditions: Colletotrichum orbiculare, 24 h, 1 Day Protectant, high volume, read-out: Disease Control COLLLA 1 DP
Description: Technical grades of materials were dissolved in acetone, which were then mixed with nine volumes of water containing 110 ppm Triton X-100. The fungicide solutions were applied onto wheat seedlings using an automated booth sprayer to run-off. All sprayed plants were allowed to air dry prior to further handling. All fungicides were evaluated using the aforementioned method for their activity vs. all target diseases. Wheat leaf blotch and brown rust activity were also evaluated using track spray applications, in which case the fungicides were formulated as EC formulations, containing 0.1% Trycol 5941 in the spray solutions. Cucumber seedlings (variety Bush Pickle) were propagated in soil-less Metro mix, with each pot having one plant, and used in the test when 12 to 14 days old. Test plants were inoculated with an aqueous spore suspension of Colletotrichum lagenarium 24 hr after fungicide treatments. After inoculation the plants were kept in a dew room at 22° C. with 100% relative humidity for 48 hr to permit spores to germinate and infect the leaf. The plants were then transferred to a growth room set at 22° C. for disease to develop. Fungicide formulation, application and disease assessment on the sprayed leaves followed the procedures as described in the Example A.

[5] = test system: Rhyncosporium secalis; test: Barley scald (RHYNSE) disease control; conditions: 24 h, High volume application, 1 Day Protectant, read-out: RHYNSE 1 DP disease control
Description: Technical grades of materials were dissolved in acetone, which were then mixed with nine volumes of water containing 110 ppm Triton X-100. The fungicide solutions were applied onto wheat seedlings using an automated booth sprayer to run-off. All sprayed plants were allowed to air dry prior to further handling. All fungicides were evaluated using the aforementioned method for their activity vs. all target diseases. Wheat leaf blotch and brown rust activity were also evaluated using track spray applications, in which case the fungicides were formulated as EC formulations, containing 0.1% Trycol 5941 in the spray solutions. Barley seedlings (variety Harrington) were propagated in soil-less Metro mix, with each pot having 8 to 12 plants, and used in the test when first leaf was fully emerged. Test plants were inoculated by an aqueous spore suspension of Rhyncosporium secalis 24 hr after fungicide treatments. After inoculation the plants were kept in a dew room at 20° C. with 100% relative humidity for 48 hr. The plants were then transferred to a greenhouse set at 20° C. for disease to develop. Fungicide formulation, application and disease assessment on the sprayed leaves followed the procedures as described in the Example A.

[6] = test system: Blumeria graminis f. sp. tritici; Synonym: Erysiphe graminis f. sp. tritici; test: Wheat powdery mildew (ERYSGT) disease control; conditions: 24 h, 1 Day Protectant, high volume, read-out: Disease Control ERYSGT 1 DP
Description: Technical grades of materials were dissolved in acetone, which were then mixed with nine volumes of water containing 110 ppm Triton X-100. The fungicide solutions were applied onto wheat seedlings using an automated booth sprayer to run-off. All sprayed plants were allowed to air dry prior to further handling. All fungicides were evaluated using the aforementioned method for their activity vs. all target diseases. Wheat leaf blotch and brown rust activity were also evaluated using track spray applications, in which case the fungicides were formulated as EC formulations, containing 0.1% Trycol 5941 in the spray solutions. Wheat plants (variety Yuma) were grown from seed in a greenhouse in 50% mineral soil/50% soil-less Metro mix until the first leaf was fully emerged, with 7-10 seedlings per pot. These plants were inoculated by dusting with infected stock plants 24 hr after fungicide treatments. After inoculation the plants were kept in a greenhouse set at 20° C. for disease to develop. Fungicide formulation, application and disease assessment on the sprayed leaves followed the procedures as described in the Example A.

Structure (SMILES)	pest or weed control at 100 ppm [1] [%]	pest or weed control at 100 ppm [2] [%]	pest or weed control at 100 ppm [3] [%]	pest or weed control at 100 ppm [4] [%]	pest or weed control at 100 ppm [5] [%]	pest or weed control at 100 ppm [6] [%]
COc1ccnc(C(=O)N[C@H]2CCC[C@H](Oc3ccccc3)[C@@H](Oc3ccccc3)[C@H](C)OC2=O)c1OCOC(C)=O [F20]	0 to 80	0 to 80	0 to 80	80 to 100	80 to 100	0 to 80
COc1ccnc(C(=O)N[C@H]2CCC[C@H](OCC(C)C)[C@@H](Oc3ccccc3)[C@H](C)OC2=O)c1OCOC(C)=O [F26]			0 to 80	80 to 100		0 to 80
COc1ccnc(C(=O)N[C@H]2CCC[C@H](Oc3ccccc3)[C@@H](OCC(C)C)[C@H](C)OC2=O)c1OCOC(C)=O [F28]	0 to 80	80 to 100	0 to 80	80 to 100	80 to 100	0 to 80
COc1ccnc(C(=O)N[C@H]2CCC[C@H](OCC(C)C)[C@@H](OCC(C)C)[C@H](C)OC2=O)c1OCOC(C)=O [F29]	80 to 100	80 to 100	80 to 100	80 to 100		80 to 100
COc1ccnc(C(=O)N[C@H]2CCC[C@H](OCc3ccccc3)[C@@H](OCc3ccccc3)[C@H](C)OC2=O)c1OCOC(C)=O [F30]	0 to 80	80 to 100	0 to 80	80 to 100		< 0
COc1ccnc(C(=O)N[C@H]2CCC[C@H](OCc3ccccc3)[C@@H](Oc3ccccc3)[C@H](C)OC2=O)c1OCOC(C)=O [F31]	0 to 80		< 0	80 to 100		0 to 80
COc1ccnc(C(=O)N[C@H]2CCC[C@H](OCC(C)C)[C@@H](Oc3ccccc3)[C@H](C)OC2=O)c1OCOC(=O)C(C)C [F34]	0 to 80		0 to 80	80 to 100		0 to 80
COc1ccnc(C(=O)N[C@H]2CCC[C@H](Oc3ccccc3)[C@@H](OCC(C)C)[C@H](C)OC2=O)c1OCOC(=O)C(C)C [F35]	80 to 100		80 to 100	80 to 100		0 to 80
COc1ccnc(C(=O)N[C@H]2CCC[C@H](Oc3ccccc3)[C@@H](Oc3ccccc3)[C@H](C)OC2=O)c1OCOC(=O)C(C)C [F36]	80 to 100		0 to 80	80 to 100		< 0
COc1ccnc(C(=O)N[C@H]2CCC[C@H](OCC(C)C)[C@@H](OCC(C)C)[C@H](C)OC2=O)c1OCOC(=O)C(C)C [F37]	80 to 100		80 to 100	80 to 100		0 to 80
COc1ccnc(C(=O)N[C@H]2CCC[C@H](OCC(C)C)[C@@H](OC3CCCC3)[C@H](C)OC2=O)c1OCOC(=O)C(C)C [F38]	80 to 100		80 to 100	80 to 100		0 to 80
COc1ccnc(C(=O)N[C@H]2CCC[C@H](OCC(C)C)[C@@H](OC3CCCC3)[C@H](C)OC2=O)c1OCOC(C)=O [F39]	80 to 100	80 to 100	80 to 100	80 to 100	80 to 100	80 to 100
COc1ccnc(C(=O)N[C@H]2CCC[C@H](OCC(C)C)[C@@H](OC)[C@H](C)OC2=O)c1OCOC(=O)C(C)C [F254]	0 to 80	80 to 100	< 0	80 to 100	80 to 100	
COc1ccnc(C(=O)N[C@H]2CCC[C@H](Oc3ccccc3)[C@@H](OC)[C@H](C)OC2=O)c1OCOC(=O)C(C)C [F255]	0 to 80	80 to 100	< 0	80 to 100	80 to 100	
